{"source": "patent US20040180819A1", "about": "“Characterization of a membrane estrogen receptor” (priority 2001, published 2004)", "key": {"mER receptor": {"biological_target": "mER receptor", "experiment": "Saturation binding / Scatchard analysis, D12 membrane (P2) fraction", "design": "species or system rat", "description": "(§1) Briefly, cells were harvested in a binding buffer (10 mM Tris-HCl, 1 mM EDTA, 1 mM DTT; pH=7.2) containing 5 μg/ml protease inhibitors (aprotinin, leupeptin, phosphoramidon, PMSF, pepstatin), pelleted to remove cell media and then homogenized by mechanical disruption (polytron; speed 6 for 10 sec). Unlysed cells and debris were removed by centrifugation at 15,000×g for 15 min at 4° C. The resulting supernatant was homogenized and membranes were isolated by centrifugation at 100,000×g for 1 h at 4° C. The supernatant obtained following the high speed spin was labeled S2 (cytosol) while the pellet was labeled P2 (membranes). The pellet (P2) was resuspended using a glass homogenizer in 3 ml of 0.25 M sucrose in binding buffer. The sucrose gradient was layered in a 15 ml centrifuge tube starting with 41%, 25%, and 10% sucrose using J tubes. The P2 sample was added to the top and the remaining layer was capped with binding buffer. The tubes were centrifuged at 35,000×g for 1 h, placed in a fraction collector (bottom tube draw) and 500 μl samples were collected. Protein concentrations were determined with BCA reagent (Pierce). […] Statistical significance between IC50s and KDs was determined using a pair-wise Z-test. […]"}, "ERα receptor": {"biological_target": "T1, ERα receptor (Rattus norvegicus, UniProt P06211)", "T1 sequence (P06211 1-600)": "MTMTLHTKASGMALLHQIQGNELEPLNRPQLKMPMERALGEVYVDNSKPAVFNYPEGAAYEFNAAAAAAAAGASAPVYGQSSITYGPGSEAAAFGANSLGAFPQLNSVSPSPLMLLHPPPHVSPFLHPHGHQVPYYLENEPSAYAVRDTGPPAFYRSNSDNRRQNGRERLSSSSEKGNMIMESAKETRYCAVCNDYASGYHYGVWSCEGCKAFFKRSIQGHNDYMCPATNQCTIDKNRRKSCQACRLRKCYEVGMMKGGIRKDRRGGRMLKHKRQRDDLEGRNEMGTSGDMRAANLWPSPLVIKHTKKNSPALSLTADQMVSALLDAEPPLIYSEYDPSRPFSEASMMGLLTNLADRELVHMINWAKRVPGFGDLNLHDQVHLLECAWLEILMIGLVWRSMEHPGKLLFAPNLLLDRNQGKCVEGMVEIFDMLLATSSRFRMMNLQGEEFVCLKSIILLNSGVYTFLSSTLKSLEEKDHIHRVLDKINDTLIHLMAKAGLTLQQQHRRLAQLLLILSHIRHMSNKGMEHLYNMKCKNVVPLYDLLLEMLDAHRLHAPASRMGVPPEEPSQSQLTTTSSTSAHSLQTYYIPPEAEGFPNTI", "experiment": "Saturation binding / Scatchard analysis, D12 cytosolic (S2) fraction", "description": "as §1"}}, "data": [{"smiles": "C[C@]12CC[C@@H]3c4ccc(O)cc4CC[C@H]3[C@@H]1C[C@@H]([125I])[C@@H]2O", "note": "[[^125I]-16α-iodo-3,17β-E2, [^125I]-16-α-iodo-3,17-βestradiol]", "values": [{"measurement": "Kd", "setting": "mER receptor", "result": "0.118 ± 0.0436", "unit": "nM"}, {"measurement": "slope value", "setting": "ERα receptor; S2 fraction", "result": 0.8}, {"measurement": "Kd", "setting": "ERα receptor; cytosolic (S2) binding", "result": "0.124 ± 0.0171", "unit": "nM"}]}]}
